We go through 19 compounds from patent US20230118142A1, “AGENTS FOR USE IN THE TREATMENT OF TISSUE DAMAGE” (UCL BUSINESS LTD, priority 2020, published 2023).

Holding throughout (set-up): The final concentrations were 0.73 μM native pentameric CRP; from tissue
Assay [1] addresses T1, CRP (Homo sapiens, UniProt P02741).
T1 sequence (P02741 19-224): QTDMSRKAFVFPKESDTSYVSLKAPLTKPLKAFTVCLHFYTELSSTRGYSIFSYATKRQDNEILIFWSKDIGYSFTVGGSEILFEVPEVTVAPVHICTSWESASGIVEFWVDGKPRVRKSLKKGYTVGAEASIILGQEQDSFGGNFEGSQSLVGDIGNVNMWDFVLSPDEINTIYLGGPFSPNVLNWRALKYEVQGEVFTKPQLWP
As to the kind of experiment: Roche immunoturbidimetric assay: pure CRP. In kind it is binding. As to conditions: pure CRP in TC buffer; read-out: IC50 (μM), SD; inhibition of Roche CRP immunoreactivity. The protocol: (i) Human CRP at ˜90 μg/ml (3.9 μM monomer or 0.78 μM pentamer) in TC buffer was prepared from a stock solution; a 75 μl aliquot was used in the assay.
(ii) Compounds were prepared from stock solutions at up to 10 mM in TC (labelled S1). They were serially diluted with TC buffer (100 μl ligand+200 μl TC) to provide up to 9 dilutions, S2-S10. A TC buffer control (S0) was included in each assay.
(iii) A 15 μl volume of each ligand solution was incubated with 75 μl of CRP for 1 h at 37° C. The final concentrations were CRP pentamer=0.73 μM, ligands S1-S10=625-0.03 μM, corresponding to ligand:CRP pentamer ratios of 853-0.04.
(iv) CRP concentrations were measured by the Roche microparticle-enhanced immunoturbidimetric assay (10) on the COBAS MIRA autoanalyser, and results expressed as a percentage of the CRP control.
(v) Data were plotted using Sigmaplot (V14) using the 4 parameter logistic curve y=min+(max−min)/(1+(x/EC50)^−Hill slope) to calculate EC50.
(vii) All compounds were assayed in comparison with a highly purified preparation of BPC8, that was prepared by Carbogen AMCIS AG, dissolved in sterile water and diluted into TC buffer as required.
The immunoturbidimetric CRP assay on the Roche COBAS MIRA Plus autoanalyser, utilises two different sized microparticles that are covalently coupled with two different monoclonal antibodies, which recognise different CRP epitopes. The assay was developed by Roche for clinical measurement of CRP serum and plasma with high sensitivity and a very wide dynamic range. Serendipitously, one of the two antibodies binds to an epitope present on the ligand binding B-face of CRP. Thus, when the binding pocket is occupied by ligand and, especially, when the B-face is occluded by the B-face to B-face interaction of two native CRP pentamers produced by cross linking via our unique bivalent ligands, the assay fails to detect the CRP. In contrast, the CRP is all detected and assayed normally by other assays that disrupt the crosslinking and/or use antibodies which recognise different, non-occluded, epitopes. Inhibition of CRP recognition in the Roche assay is thus a convenient tool to monitor the efficacy and potency of complex formation between our unique ligands and CRP.

Assay [2] has as its target T1, CRP. Briefly: Immobilised phosphocholine plate assay (125I-CRP binding). The following applies: read-out: IC50 for inhibition of 125I-CRP binding to immobilised phosphocholine. The protocol:
(i) Phosphocholine was immobilised on Greiner NHS-activated microtitre plates by incubation with 4-aminophenyl-1-phosphocholine. Remaining active sites were blocked by incubation with 4% w/v BSA in TC buffer (TCB).
(ii) Human CRP at 1 μg/ml in TC buffer was spiked with ^125I-labelled CRP to provide 10^6 cpm/ml.
(iii) Compounds were prepared from up to 10 mM stock solutions by dilution in TC buffer to 0.5 mM (labelled S1). Serial dilutions were prepared by diluting 100 μl ligand solution with 200 μl TC buffer (S2-S10). A ligand-free control was also used (SO, TC only).
(iv) A 100 μl volume of CRP solution was incubated with 10 μl of each compound (S1-S10, SO) for 1 h at room temperature without stirring, to provide final ligand concentrations across the range 45.5 μM-6.9 nM with a ligand:CRP monomer molar ratio of 1151-0.06. In some cases, single fixed ligand concentrations were also assayed in comparison with PC.
(v) A 100 μl volume of each CRP-ligand mixture was added to the plate wells and incubated for 2 h at room temperature. Solutions were then discarded and the plates washed with TCB buffer. Bound radioactivity was measured (1 min counts) using a gamma counter (Perkin Elmer Wizard 2470).
(vi) Data were plotted with Sigmaplot v14 software using the 4-parameter logistic curve y=min+(max−min)/(1+(x/EC50)^−Hill slope) to calculate IC50.

In assay [3] the target is T1, CRP. As to the kind of experiment: Size exclusion chromatography of CRP/ligand cross linking. In kind it is binding. As to conditions: CRP/ligand complex re-chromatographed in absence of free ligand. The protocol:
(i) Ligands were diluted to 0.5 mM in TC buffer from up to 10 mM stocks. Serial dilutions were prepared as required. […]
(iii) The complex was chromatographed on a Superdex200 column (10/300 GL; 24 ml bed volume), connected to the ÅKTA100 Explorer HPLC system, and equilibrated and eluted in TC buffer at 0.5 ml/min. Eluates were monitored at 280 nm and fractions (0.5 ml) collected as required.
Size exclusion chromatography on a Superdex 200 column equilibrated and eluted with TC buffer pH 8.0, and calibrated with standard globular marker proteins and with human CRP, the native CRP pentamer (Mr 115 kDa) eluted at 13.9 ml (range 13.7-14.0 ml, n=10).
A general note: Size exclusion chromatography separates by hydrodynamic size, large species first.

Bounds are passed on as bounds.

In general, IC50 refers to the concentration that gives 50% inhibition. Turning to `O=C(CCCCCCC(=O)NC(C(=O)O)[C@H]1CN2CCC1CC2)NC(C(=O)O)[C@H]1CN2CCC1CC2` (stereo partly drawn) [Compound P1d-6, 2-[(3R)-1-azabicyclo[2.2.2]octan-3-yl]-2-[7-({[(3R)-1-azabicyclo[2.2.2]octan-3-yl](carboxy)methyl}carbamoyl)heptanamido]acetic acid], in assay [1], the IC50 amounted to 9.92 µM. Turning to `O=P(O)(OCCCCCCOP(=O)(O)O[C@@H]1CN2CCC1CC2)O[C@@H]1CN2CCC1CC2` [Pk-025, Hexane-1,6-diyl di(S)-quinuclidin-3-yl) bis(hydrogen phosphate], the IC50 in assay [2] is 280 nM; in assay [1], 1.08 µM.

As to `O=C(CCCCCC(=O)NC(C(=O)O)[C@H]1CN2CCC1CC2)NC(C(=O)O)[C@H]1CN2CCC1CC2` (stereo partly drawn) [Compound P1d-5, 2-[(3R)-1-azabicyclo[2.2.2]octan-3-yl]-2-(6-{[[(3R)-1-azabicyclo[2.2.2]octan-3-yl](carboxy)methyl]carbamoyl}hexanamido)acetic acid], in assay [1], the IC50 was more than 400 µM. On the same count and under the same terms, to `O=C(CCCC(=O)NC(C(=O)O)[C@H]1CN2CCC1CC2)NC(C(=O)O)[C@H]1CN2CCC1CC2` (stereo partly drawn) [Compound P1d-3, 2-[(3R)-1-azabicyclo[2.2.2]octan-3-yl]-2-(4-{[[(3R)-1-azabicyclo[2.2.2]octan-3-yl](carboxy)methyl]carbamoyl}butanamido)acetic acid] belongs more than 400 µM. As for `O=P(O)(OCCCCCCCCCOP(=O)(O)O[C@@H]1CN2CCC1CC2)O[C@@H]1CN2CCC1CC2` [Pk-028, Nonane-1,9-diyl di(S)-quinuclidin-3-yl) bis(hydrogen phosphate], the IC50 in assay [2] amounted to 160 nM.

`O=C(CC(c1ccccc1)C(CC(=O)NC(C(=O)O)[C@H]1CN2CCC1CC2)c1ccccc1)NC(C(=O)O)[C@H]1CN2CCC1CC2` (single isomer, unassigned) [P2B-D peak1]: the Stable to rechromatography entry in assay [3] is given as “Yes”. Also, the IC50 in assay [1] was determined as 0.66 µM. As to `O=C(NC(C(=O)O)[C@H]1CN2CCC1CC2)NC(C(=O)O)[C@H]1CN2CCC1CC2` (stereo partly drawn) [Compound P2B-G, 2-[[-carboxy-[(3R)-quinuclidin-3-yl]methyl]carbamoylamino]-2-[(3R)-quinuclidin-3-yl]acetic acid], in assay [1], the IC50 stood at 26.2 µM.

Take `O=C(CCC(=O)NC(C(=O)O)[C@H]1CN2CCC1CC2)NC(C(=O)O)[C@H]1CN2CCC1CC2` (stereo partly drawn) [Compound P1d-2, 2-[(3R)-1-azabicyclo[2.2.2]octan-3-yl]-2-[3-({[(3R)-1-azabicyclo[2.2.2]octan-3-yl](carboxy)methyl}carbamoyl)propanamido]acetic acid]: the Stable to rechromatography entry in assay [3] is on record as “Yes”. Moreover, the IC50 in assay [1] is less than 2 µM. With `CC(C)(CCCCC(C)(C)COP(=O)(O)O[C@@H]1CN2CCC1CC2)COP(=O)(O)O[C@@H]1CN2CCC1CC2` [Pk-033, [(3S)-1-azabicyclo[2.2.2]octan-3-yloxy]({[8-({[(3S)-1-azabicyclo[2.2.2]octan-3-yloxy](hydroxy)phosphoryl}oxy)-2,2,7,7-tetramethyloctyl]oxy})phosphinic acid], the IC50 in assay [1] came to 0.59 µM. With `O=C(NC(C(=O)O)[C@H]1CN2CCC1CC2)C(=O)NC(C(=O)O)[C@H]1CN2CCC1CC2` (stereo partly drawn) [Compound P1d-0, 2-[(3R)-1-azabicyclo[2.2.2]octan-3-yl]-2-[({[(3R)-1-azabicyclo[2.2.2]octan-3-yl](carboxy)methyl}carbamoyl)formamido]acetic acid], in assay [1], the IC50 worked out at 0.97 µM. Turning to `C[N+]12CCC(CC1)[C@@H](C(NC(=O)CCCCC(=O)NC(C(=O)O)[C@H]1C[N+]3(C)CCC1CC3)C(=O)O)C2` (stereo partly drawn) [Compound P1d-4A, (3R)-3-{carboxy[5-({carboxy[(3R)-1-methyl-1-azabicyclo[2.2.2]octan-1-ium-3-yl]methyl}carbamoyl)pentanamido]methyl}-1-methyl-1-azabicyclo[2.2.2]octan-1-ium], the IC50 in assay [1] was determined as 1.43 µM.

Take `O=C(CCCCC(=O)NC(C(=O)O)C1CN2CCC1CC2)NC(C(=O)O)C1CN2CCC1CC2` [Compound P1d-4, 2-[(3R)-1-azabicyclo[2.2.2]octan-3-yl]-2-(8-{[[(3R)-1-azabicyclo[2.2.2]octan-3-yl](carboxy)methyl]carbamoyl}pentamido)acetic acid]: in assay [3], the Stable to rechromatography entry is “Partial”. The IC50 in assay [1] was less than 2 µM.

Regarding `O=C(CCCCCCCC(=O)NC(C(=O)O)[C@H]1CN2CCC1CC2)NC(C(=O)O)[C@H]1CN2CCC1CC2` (stereo partly drawn) [Compound P1d-7, 2-[(3R)-1-azabicyclo[2.2.2]octan-3-yl]-2-(8-{[[(3R)-1-azabicyclo[2.2.2]octan-3-yl](carboxy)methyl]carbamoyl}octanamido)acetic acid], the IC50 in assay [1] is more than 400 µM. Take `CC(C)(C/C=C/CC(C)(C)COP(=O)(O)O[C@@H]1CN2CCC1CC2)COP(=O)(O)O[C@@H]1CN2CCC1CC2` [Pk-032, di((S)-1-azabicyclo[2.2.2]octan-3-yl) (E)-2,2,7,7-tetramethyloct-4-ene-1,8-diyl bis(hydrogen phosphate)]: in assay [1], the IC50 was 0.72 µM.

On to `O=P(O)(OCCCCCCCCCCOP(=O)(O)O[C@@H]1CN2CCC1CC2)O[C@@H]1CN2CCC1CC2` [Pk-027, Decane-1,10-diyl di(S)-quinuclidin-3-yl) bis(hydrogen phosphate], for which the IC50 in assay [2] came to 180 nM.

As for `CN(C)CCOP(=O)(O)OCCCCCCCCOP(=O)(O)OCCN(C)C` [Dm-BPC8, bis(2-(dimethylamino)ethyl) octane-1,8-diyl bis(hydrogen phosphate), reference compound], the IC50 in assay [1] turned out to be 127 µM. `O=P(O)(OCCCCCCCOP(=O)(O)OC1CN2CCC1CC2)OC1CN2CCC1CC2` [Pk-026, Heptane-1,7-diyl di(S)-quinuclidin-3-yl) bis(hydrogen phosphate]: the IC50 in assay [2] worked out at 180 nM. For the compound `O=C(CC(=O)NC(C(=O)O)[C@H]1CN2CCC1CC2)NC(C(=O)O)[C@H]1CN2CCC1CC2` (stereo partly drawn) [Compound P1d-1, 2-[(3R)-1-azabicyclo[2.2.2]octan-3-yl]-2-(2-{[[(3R)-1-azabicyclo[2.2.2]octan-3-yl](carboxy)methyl]carbamoyl}acetamido)acetic acid], the IC50 in assay [1] was more than 400 µM. As for `O=C(Cc1ccc(CC(=O)NC(C(=O)O)[C@H]2CN3CCC2CC3)cc1)NC(C(=O)O)[C@H]1CN2CCC1CC2` (stereo partly drawn) [Compound P2B-C, 2-[[2-[4-[2-[[carboxy-[(3R)-quinuclidin-3-yl]methyl]amino]-2-oxo-ethyl]phenyl]acetyl]amino]-2-[(3R)-quinuclidin-3-yl]acetic acid], the IC50 in assay [1] is 2.69 µM.
